Measured values: paper PMC11371738, “Development of an ic-CLEIA for precise detection of 3-CQA in herbs and patent medicines: ensuring quality control and therapeutic efficacy” (Frontiers in Nutrition, 2024)
Converted amounts (≈) assume the structure as drawn.

How the values were obtained:
anti-3-CQA mAb [1] = experiment: mAb-based indirect competitive chemiluminescence enzyme immunoassay (ic-CLEIA); assay type: binding, mouse; conditions: for CR (cross-reactivity) = IC50 3-CQA / IC50 analogue x 100%: ic-CLEIA; for IC50: 3-CQA-OVA coating 2 μg/mL, mAb 1:8000, deionized water pH 7.0
Method: To establish the optimal conditions for the ic-CLEIA, a checkerboard titration was employed. The protocols of the ic-CLEIA were performed as previously ([20]). A gradient concentration of 3-CQA-OVA (0.125, 0.5, 2.0, and 8.0 μg/mL; 100 μL/well) was diluted in PBS and added to a 96-well white microliter plate (Costar Inc., Cambridge, MA, United States), followed by incubation at 4°C overnight. After washing each well three times with PBST (PBS solution containing 0.05% Tween-20, pH 7.4), the plates were blocked with 5% skimmed milk powder (SMP) (Sigma, St Louis, MO, United States) in PBS (200 μL/well) at 37°C for 2 h. Subsequently, different concentrations of mAb (1:2000, 1:4000, 1:8000, 1:16000, 1:32000, 1:64000, and 1:128000; 100 μL/well) were added to different wells, followed by incubation at 4°C for 50 min. For ic-CLEIA standard curve, 3-CQA standard solutions in PBS (0.01, 0.025, 0.05, 0.1, 0.25, 0.5, 1, 2.5, 5, 10, 25, 50, and 100 ng/mL; 50 μL) and the diluted antibody in PBS (50 μL) were added to each well and incubated at 4°C for 50 min. After a washing step, goat anti-mouse IgG-horse radish peroxidase (HRP) (SinoBiological, Beijing, China) dissolved in PBS supplemented with 2% SMP was added at a 1:5000 dilution (100 μL/well), and the plates were incubated at 37°C for 50 min. Afterward, 100 μL of chemiluminescent substrate solution (Heliosense Biotechnology, Xiamen, China) was pipetted into each well, and the emitted photons were immediately read at 595 nm using a Tecan Infinite F200 reader (Mannedorf, Switzerland). To investigate the effects of different factors on the overall reaction system, different pH (6.5, 7.0, 7.4, and 8.0), methanol aqueous solution (5, 10, 30, and 50%; v/v), Tween-20 (0.01, 0.02, 0.04, 0.06, and 0.08%, v/v), sodium chloride solution (0.1 M, 0.2 M, and 0.4 M) were prepared and tested.
All incubation steps were performed in the dark throughout the procedure. The competitive inhibition curves for 3-CQA were plotted using GraphPad Prism 8.0 (GraphPad Inc., San Diego, CA).
To evaluate CR, the structural analogs of 3-CQA including 4-CQA, 5-CQA, 3,5-dicaffeoylquinic acid, 4,5-dicaffeoylquinic acid, 3,4-dicaffeoylquinic acid, and tea polyphenols (DESITE Biotech, Chengdu, China) were used in place of 3-CQA within the ic-CLEIA assay. The respective CR values of these analogs were determined using the following equation: […]

anti-3-CQA mAb [2] = experiment: indirect competitive ELISA (ic-ELISA); assay type: binding, mouse; conditions: same conditions as ic-CLEIA
Method: The protocols of ic-ELISA are similar to the ic-CLEIA, 3-CQA-OVA antigen, anti-3-CQA mAb, and goat anti-mouse IgG-HRP were successively incubated under optimized conditions. 3-CQA standard solutions in PBS (1, 2, 4, 8, 16, 32, 64, 128, 256, and 512 ng/mL; 50 μL) and the diluted antibody in PBS (50 μL) were added to each well and incubated at 4°C for 50 min. Subsequent to four washes, 3, 3′, 5, 5′-tetramethylbenzidine (TMB, 100 μL/well) solution was added and incubated at 37°C for 10 min. The reaction was then terminated by adding 2 M H2SO4 (50 μL/well), and the absorbance was measured at the wavelength of 450 nm (OD450). The competitive inhibition curve was plotted using Lg[10*C3-CQA (ng/mL)] as the abscissa and B/B0 (B0 is the OD450 value without standard, and B is the OD450 value with standard present) as the ordinate.

SMILES | CR (cross-reactivity) = IC50 3-CQA / IC50 analogue x 100% (anti-3-CQA mAb [1]) | IC50 (anti-3-CQA mAb [1]; optimized conditions) | IC20 (lower end of linear range) (anti-3-CQA mAb [1]; optimized conditions) | IC80 (upper end of linear range) (anti-3-CQA mAb [1]; optimized conditions) | calibration / linear / detection range (IC20-IC80) (anti-3-CQA mAb [1]; optimized conditions) | limit of detection (LOD, IC10) (anti-3-CQA mAb [1]; optimized conditions) | IC50 (anti-3-CQA mAb [2]) | LOD (anti-3-CQA mAb [2]) | linear / detection range (anti-3-CQA mAb [2])
O=C(/C=C/c1ccc(O)c(O)c1)OC1C(O)CC(O)(C(=O)O)CC1O (stereo not shown) [4-CQA, 4-caffeoylquinic acid] | 0.62% | 0.48062 mg/L |  |  |  |  |  |  | 
O=C(/C=C/c1ccc(O)c(O)c1)OC1CC(O)(C(=O)O)CC(OC(=O)/C=C/c2ccc(O)c(O)c2)C1O (stereo not shown) [3,5-dicaffeoylquinic acid] | 10.71% | 0.02774 mg/L |  |  |  |  |  |  | 
O=C(/C=C/c1ccc(O)c(O)c1)OC1CC(O)(C(=O)O)CC(O)C1OC(=O)/C=C/c1ccc(O)c(O)c1 (stereo not shown) [4,5-dicaffeoylquinic acid] | 0.31% | 0.97156 mg/L |  |  |  |  |  |  | 
O=C(/C=C/c1ccc(O)c(O)c1)OC1CC(O)(C(=O)O)CC(O)C1OC(=O)/C=C/c1ccc(O)c(O)c1 (stereo not shown) [3,4-dicaffeoylquinic acid] | 2.10% | 0.14173 mg/L |  |  |  |  |  |  | 
O=C(/C=C/c1ccc(O)c(O)c1)OC1CC(O)(C(=O)O)CC(O)C1O (stereo not shown) [5-CQA, 5-caffeoylquinic acid] | 1.81% | 0.16444 mg/L |  |  |  |  |  |  | 
O=C(C=Cc1ccc(O)c(O)c1)OC1CC(O)(C(=O)O)CC(O)C1O (stereo not shown) [3-CQA, 3-caffeoylquinic acid] | 100.00% | 0.00297 mg/L | 0.00064 mg/L | 0.01375 mg/L | 0.00064 to 0.01375 mg/L | 0.00039 mg/L | 0.03606 mg/L (≈ 0.102 µM) | 6.71 ng/mL | 10.21 to 127.36 ng/mL
